Laboratory results published in patent publication US20240009190A1, “COMBINATION CANCER THERAPY USING CHK INHIBITOR” (SHANGHAI HUAYU BIOTECHNOLOGY CO., LTD., priority 2020, published 2024).

How the values were obtained:
[1] = test system: CT-26 WT cells; test: CT-26 WT subcutaneous tumor model, CHK inhibitors at lower dose with anti-m-PD-1 antibody (Example 2); type: in vivo, BALB/c female mice; settings: for Average tumor size: compounds 15 mg/kg tail vein once per day, anti-m-PD-1 10 mg/kg IP once every five days; for Tumor weight based TGI: compounds 15 mg/kg, anti-m-PD-1 10 mg/kg; for Tumor weight, Average: group average of 8 mice; for Tumor weight, Mouse no. 1 / Tumor weight, Mouse no. 2 / Tumor weight, Mouse no. 3 / Tumor weight, Mouse no. 4 / Tumor weight, Mouse no. 5 / Tumor weight, Mouse no. 6 / Tumor weight, Mouse no. 7 / Tumor weight, Mouse no. 8: individual mouse
Protocol: The anti-tumor effect of Compound 6 at a lower dose in combination with an anti-PD-1 antibody was studied in this Example. Further, three compounds obtained by structurally modifying Compound 6, i.e., Compound 6-1, Compound 6-2 and Compound 6-3, were tested alone or in combination with an anti-PD-1 antibody for their anti-tumor effects.
At Day 0, 105 BALB/c female mice, 4-5 weeks old, were subcutaneously injected with about 200.0 μL of the CT-26 WT cell medium containing about 5×10^5 cells, respectively.
At Day 5, 80 tumor-bearing mice were randomly assigned to ten groups according to their body weights, 8 mice per group. The remaining mice were subject to euthanasia.
The ten groups of animals were administered with an anti-m-PD-1 antibody (BE0146, BioXcell) in PBS (21-040-CVR, BioXcell) at 1.0 mg/mL, Compound 6 in saline at 1.5 mg/mL, Compound 6-1 in saline at 1.5 mg/mL, Compound 6-2 in saline at 1.5 mg/mL, Compound 6-3 in saline at 1.5 mg/mL, the anti-m-PD-1 antibody+Compound 6, the anti-m-PD-1 antibody+Compound 6-1, the anti-m-PD-1 antibody+Compound 6-2, the anti-m-PD-1 antibody+Compound 6-3, and the control vehicle (saline), respectively, at doses shown in Table 3 below.
(§1) Mice were observed every day for their physical conditions and activities, and mice body weight and tumor volume were measured every Tuesday, Thursday and Sunday. The tumor volume (V) was calculated as (length×width^2)/2.
(§2) At Day 23, mice were subject to euthanasia, from which tumors were collected, weighed and photographed. Mice body weights, tumor sizes and tumor weights were analyzed using the t-test in SPSS, and group differences were deemed statistically significant when the p-value was 0.05 or less. Tumor weight based tumor growth inhibition (TGI) and Zheng-Jun Jin's Q value were calculated.

[2] = Mice body weight in CT-26 WT tumor model (Example 2); type: in vivo, BALB/c female mice; settings: for Average body weight: compounds 15 mg/kg tail vein once per day, anti-m-PD-1 10 mg/kg IP once every five days; for average mice weight, tumor weight deducted: compounds 15 mg/kg, anti-m-PD-1 10 mg/kg
Protocol: as §1, §2

NC(=O)c1nnc(CC2CCCNC2)c2cc(-c3cc(Cl)cc(Cl)c3)sc12 (stereo not drawn) [Compound 6-3, 2-(3,5-dichlorophenyl)-4-(3-piperidinemethyl)-thieno[2,3-d]pyridazinyl-7-formamide]
Average tumor size ([1]; Day 9): 162.03 mm^3
Average tumor size ([1]; Day 10): 282.00 mm^3
Average tumor size ([1]; Day 12): 417.93 mm^3
Average tumor size ([1]; Day 14): 527.17 mm^3
Average tumor size ([1]; Day 16): 718.27 mm^3
Average tumor size ([1]; Day 18): 828.07 mm^3
Average tumor size ([1]; Day 20): 1072.57 mm^3
Average tumor size ([1]; Day 22): 1334.48 mm^3
Average tumor size ([1]; Day 23): 1558.87 mm^3
Tumor weight based TGI ([1]; Day 23): 32.73%
Tumor weight, Average ([1]; Day 23): 1.90 g
Tumor weight, Mouse no. 1 ([1]; Day 23): 2.85 g
Tumor weight, Mouse no. 2 ([1]; Day 23): 1.24 g
Tumor weight, Mouse no. 3 ([1]; Day 23): 2.76 g
Tumor weight, Mouse no. 4 ([1]; Day 23): 1.31 g
Tumor weight, Mouse no. 5 ([1]; Day 23): 1.97 g
Tumor weight, Mouse no. 6 ([1]; Day 23): 1.03 g
Tumor weight, Mouse no. 7 ([1]; Day 23): 3.12 g
Tumor weight, Mouse no. 8 ([1]; Day 23): 0.95 g
Average body weight ([2]; Day 9): 15.99 g
Average body weight ([2]; Day 10): 16.25 g
Average body weight ([2]; Day 12): 16.51 g
Average body weight ([2]; Day 14): 17.26 g
Average body weight ([2]; Day 16): 17.91 g
Average body weight ([2]; Day 18): 18.13 g
Average body weight ([2]; Day 20): 18.75 g
Average body weight ([2]; Day 22): 19.38 g
Average body weight ([2]; Day 23): 20.06 g
average mice weight, tumor weight deducted ([2]; Day 23): 18.16 g

NC(=O)c1nnc(SC2CCCNC2)c2cc(-c3cccc(F)c3)sc12 (stereo not drawn) [Compound 6-2, 2-(3-fluorophenyl)-4-(3-piperidinylthio)-thieno[2,3-d]pyridazine-7-carboxylic acid amide]
Average tumor size ([1]; Day 9): 196.37 mm^3
Average tumor size ([1]; Day 10): 278.84 mm^3
Average tumor size ([1]; Day 12): 391.83 mm^3
Average tumor size ([1]; Day 14): 570.64 mm^3
Average tumor size ([1]; Day 16): 698.18 mm^3
Average tumor size ([1]; Day 18): 805.13 mm^3
Average tumor size ([1]; Day 20): 974.34 mm^3
Average tumor size ([1]; Day 22): 1196.22 mm^3
Average tumor size ([1]; Day 23): 1334.63 mm^3
Tumor weight based TGI ([1]; Day 23): 43.82%
Tumor weight, Average ([1]; Day 23): 1.59 g
Tumor weight, Mouse no. 1 ([1]; Day 23): 0.84 g
Tumor weight, Mouse no. 2 ([1]; Day 23): 1.58 g
Tumor weight, Mouse no. 3 ([1]; Day 23): 0.84 g
Tumor weight, Mouse no. 4 ([1]; Day 23): 2.56 g
Tumor weight, Mouse no. 5 ([1]; Day 23): 1.78 g
Tumor weight, Mouse no. 6 ([1]; Day 23): 2.12 g
Tumor weight, Mouse no. 7 ([1]; Day 23): 0.89 g
Tumor weight, Mouse no. 8 ([1]; Day 23): 2.11 g
Average body weight ([2]; Day 9): 16.45 g
Average body weight ([2]; Day 10): 16.69 g
Average body weight ([2]; Day 12): 16.78 g
Average body weight ([2]; Day 14): 17.22 g
Average body weight ([2]; Day 16): 17.62 g
Average body weight ([2]; Day 18): 18.05 g
Average body weight ([2]; Day 20): 18.67 g
Average body weight ([2]; Day 22): 19.14 g
Average body weight ([2]; Day 23): 19.63 g
average mice weight, tumor weight deducted ([2]; Day 23): 18.04 g

NC(=O)c1nnc(OC2CCCNC2)c2cc(-c3cccc(F)c3)sc12 (stereo not drawn) [Compound 6-1, 2-(3-fluorophenyl)-4-(3-piperidinyloxy)-thieno[2,3-d]pyridazine-7-carboxylic acid amide]
Average tumor size ([1]; Day 9): 171.59 mm^3
Average tumor size ([1]; Day 10): 257.64 mm^3
Average tumor size ([1]; Day 12): 367.95 mm^3
Average tumor size ([1]; Day 14): 550.08 mm^3
Average tumor size ([1]; Day 16): 677.06 mm^3
Average tumor size ([1]; Day 18): 780.61 mm^3
Average tumor size ([1]; Day 20): 972.02 mm^3
Average tumor size ([1]; Day 22): 1062.24 mm^3
Average tumor size ([1]; Day 23): 1179.61 mm^3
Tumor weight based TGI ([1]; Day 23): 45.63%
Tumor weight, Average ([1]; Day 23): 1.54 g
Tumor weight, Mouse no. 1 ([1]; Day 23): 0.87 g
Tumor weight, Mouse no. 2 ([1]; Day 23): 1.19 g
Tumor weight, Mouse no. 3 ([1]; Day 23): 2.32 g
Tumor weight, Mouse no. 4 ([1]; Day 23): 2.87 g
Tumor weight, Mouse no. 5 ([1]; Day 23): 1.58 g
Tumor weight, Mouse no. 6 ([1]; Day 23): 1.68 g
Tumor weight, Mouse no. 7 ([1]; Day 23): 1.31 g
Tumor weight, Mouse no. 8 ([1]; Day 23): 0.49 g
Average body weight ([2]; Day 9): 16.29 g
Average body weight ([2]; Day 10): 16.75 g
Average body weight ([2]; Day 12): 16.89 g
Average body weight ([2]; Day 14): 17.18 g
Average body weight ([2]; Day 16): 17.79 g
Average body weight ([2]; Day 18): 17.99 g
Average body weight ([2]; Day 20): 18.32 g
Average body weight ([2]; Day 22): 18.57 g
Average body weight ([2]; Day 23): 19.31 g
average mice weight, tumor weight deducted ([2]; Day 23): 17.77 g
